The values that follow come from patent publication US20120071401A1, “AMYLIN AGONIST COMPOUNDS FOR ESTROGEN-DEFICIENT MAMMALS” (Amylin Pharamaceuticals, Inc., priority 2009, published 2012).

For data set [1] the following is noted: human subjects; cited from earlier work.
A short description of a further data set: in vivo. As to conditions: rat, 50 ug/kg/d; for level at 672 h: Plasma amylin. The protocol:
Amylin infusion to lean or obese, diabetic ZDF rats. Obese diabetic female ZDF rats (Charles River Laboratories) were maintained on 32% kcal/fat purified diet for approximately 6 weeks, and at 10 weeks of age were sorted into two weight-matched groups. One group was subjected to a bilateral ovariectomy (n=12) or SHAM surgery (n=12). Two weeks post-surgery rats were implanted with a single osmotic minipump (Alzet model 2ML4, Durect Corporation) delivering either vehicle or rat amylin (50 ug/kg/d) to half of each surgical group for 28 days. Lean (mean body weight 226±3 g) ZDF controls (Charles River) maintained on standard laboratory rodent chow (LM-485, 5% kcal/fat; Harlan Teklad) were sorted into weight-matched groups and implanted with a single osmotic minipump (Alzet model 2ML4, Durect Corporation) delivering either vehicle (n=9) or rat amylin (50 ug/kg/d; n=9) for 28 days. For both studies food intake and body weight were monitored weekly, and body composition was assessed at baseline and termination using NMR (Echo Medical Systems). After 28 days rats were euthanized by isoflurane overdose and cardiac blood collected.
Plasma metabolite analyses. Terminal plasma insulin (Crystal Chem Inc., Downer's Grove, Ill.), and leptin, total adiponectin and total ghrelin (Millipore, Billerica, […].) levels were measured using commercially available ELISA. Plasma glucose, triglyceride, and total cholesterol levels were measured using an Olympus bioanalyzer (Olympus America Diagnostics, Center Valley, Pa.). Plasma amylin levels were measured using an internal IEMA.

The conditions of data set [2]: DIO rats, leptin dose alone; cited from earlier work.

Regarding `CC[C@H](C)[C@H](NC(=O)[C@@H]1CCCN1C(=O)CNC(=O)[C@H](Cc1ccccc1)NC(=O)[C@H](CC(N)=O)NC(=O)[C@H](CC(N)=O)NC(=O)[C@H](CO)NC(=O)[C@H](CO)NC(=O)[C@H](Cc1c[nH]cn1)NC(=O)[C@@H](NC(=O)[C@H](CC(C)C)NC(=O)[C@H](Cc1ccccc1)NC(=O)[C@H](CC(N)=O)NC(=O)[C@H](C)NC(=O)[C@H](CC(C)C)NC(=O)[C@H](CCCNC(=N)N)NC(=O)[C@H](CCC(N)=O)NC(=O)[C@@H](NC(=O)[C@H](C)NC(=O)[C@@H]1CSSC[C@H](NC(=O)[C@@H](N)CCCCN)C(=O)N[C@@H](CC(N)=O)C(=O)N[C@@H]([C@@H](C)O)C(=O)N[C@@H](C)C(=O)N[C@@H]([C@@H](C)O)C(=O)N1)[C@@H](C)O)C(C)C)C(=O)N[C@@H](CC(C)C)C(=O)N1CCC[C@H]1C(=O)N1CCC[C@H]1C(=O)N[C@H](C(=O)N[C@@H](CC(N)=O)C(=O)N[C@H](C(=O)NCC(=O)N[C@@H](CO)C(=O)N[C@@H](CC(N)=O)C(=O)N[C@H](C(=O)N[C@@H](Cc1ccc(O)cc1)C(N)=O)[C@@H](C)O)C(C)C)[C@@H](C)O` [pramlintide], the “Food intake and body weight” value in data set [1] was “reduced food intake and body weight”.
Consider `CC(C)C[C@H](NC(=O)[C@H](CC(N)=O)NC(=O)[C@H](CC(N)=O)NC(=O)[C@H](CO)NC(=O)[C@H](CO)NC(=O)[C@H](CCCNC(=N)N)NC(=O)[C@@H](NC(=O)[C@H](CC(C)C)NC(=O)[C@H](Cc1ccccc1)NC(=O)[C@H](CC(N)=O)NC(=O)[C@H](C)NC(=O)[C@H](CC(C)C)NC(=O)[C@H](CCCNC(=N)N)NC(=O)[C@H](CCC(N)=O)NC(=O)[C@@H](NC(=O)[C@H](C)NC(=O)[C@@H]1CSSC[C@H](NC(=O)[C@@H](N)CCCCN)C(=O)N[C@@H](CC(N)=O)C(=O)N[C@@H]([C@@H](C)O)C(=O)N[C@@H](C)C(=O)N[C@@H]([C@@H](C)O)C(=O)N1)[C@@H](C)O)C(C)C)C(=O)NCC(=O)N1CCC[C@H]1C(=O)N[C@H](C(=O)N[C@@H](CC(C)C)C(=O)N1CCC[C@H]1C(=O)N1CCC[C@H]1C(=O)N[C@H](C(=O)N[C@@H](CC(N)=O)C(=O)N[C@H](C(=O)NCC(=O)N[C@@H](CO)C(=O)N[C@@H](CC(N)=O)C(=O)N[C@H](C(=O)N[C@@H](Cc1ccc(O)cc1)C(N)=O)[C@@H](C)O)C(C)C)[C@@H](C)O)C(C)C` [rat amylin], for which the level at 672 h was determined as 3.43 ± 0.392 ng/mL in the data set “in vivo” (ZDF (lean controls)) and 3.45 ± 0.401 ng/mL in “in vivo” (female, ZDF (obese diabetic)). The molecule further showed a Plasma amylin in the data set “in vivo” (female, ZDF (obese diabetic), 672 h) of 3279 ± 430 pg/mL.

B1: leptin (protein, UniProt P50596 22-167, looked up)
Leptin: VPIHKVQDDTKTLIKTIVTRINDISHTQSVSARQRVTGLDFIPGLHPILSLSKMDQTLAVYQQILTSLPSQNVLQIAHDLENLRDLLHLLAFSKSCSLPQTRGLQKPESLDGVLEASLYSTEVVALSRLQGSLQDILQQLDLSPEC
notes: long term signal of adiposity; acts synergistically with amylin in DIO rats
As for B1, in data set [2], the Reducing body weight result is “ineffective”.
